Like-named read-outs stand apart in the source and are kept apart here. Where only a bound is given, the exact number is not on record here.

Results on 18 molecules are retold here after EP4104902B1, “COMPOUNDS AND M[…] SAME” (priority 2020, dated 2021).

Test [1] concerns recombinant rabies virus 1088 strain expressing Gaussia Luciferase (GLuc) (1088/GLuc). In kind it is cell-based.
The subject of test [2] is rabies virus. To be noted: mouse, in vivo; cited from earlier work.
Test [3] concerns mouse neuroblastoma cell strain Neuro-2A. Description: Anti-cancer cell activity evaluation (minimum inhibitory concentration with respect to cells). The class given is cell-based. As to conditions: MIC, 3 days.
The mark [4] stands for this setting: compounds of formula XXIIB and formula XXIIF.

For `NC(=O)c1nc(F)c[nH]c1=O` [Compound T-705, Favipiravir], the IC50 in test [1] (read-out: IC50) turned out to be 30 µM. Further, in test [2], the prophylactic effect entry was “significant prophylactic effect was confirmed and not”.
`CC(C)CN1CC2CC3(C(=O)NCc4ccccc4)NCC2C1C3CCCCc1ccccc1` (stereo not drawn) [IF-899]: the IC50 in test [1] (read-out: Anti-rabies activity) fell in the range of 5 to 10 µM. For the same molecule, the Anti-cancer cell activity result in test [3] (compounds of formula XXIF) is “c (c if greater than 20 µM and less than or equal to 40 µM)”.
`CC(C)CCN1CC2CC3(C(=O)NCc4cccc(F)c4)NCC2C1C3CCCc1ccccc1` (stereo not drawn) [IF-900]: the IC50 in test [1] (read-out: Anti-rabies activity) was less than 5 µM. Further, the Anti-cancer cell activity entry in test [3] (compounds of formula XXIF) was “c (c if greater than 20 µM and less than or equal to 40 µM)”.
As to `CC(C)CN1CC2CC3C=NC2(C(=O)NCc2ccc(Cl)cc2)C1C3CCc1ccccc1` (stereo not drawn) [IIB-331], the IC50 in test [1] (read-out: Anti-rabies activity) is less than 5 µM. In addition, the Anti-cancer cell activity entry in test [3] (setting [4]) was “c (c if greater than 20 µM and less than or equal to 40 µM)”.
As to `CC(C)CN1CC2CC3C=NC2(C(=O)NCc2cccc(Cl)c2)C1C3CCc1ccccc1` (stereo not drawn) [IIB-332], the IC50 in test [1] (read-out: Anti-rabies activity) was less than 5 µM. In addition, the Anti-cancer cell activity entry in test [3] (setting [4]) is “b (b if greater than 10 µM and less than or equal to 20 µM)”.
For the molecule `Cc1ccc(CNC(=O)C23N=CC4CC2CN(CC(C)C)C3C4CCc2ccccc2)cc1` (stereo not drawn) [IIB-334], the IC50 in test [1] (read-out: Anti-rabies activity) is less than 5 µM. The Anti-cancer cell activity result in test [3] (setting [4]) is “c (c if greater than 20 µM and less than or equal to 40 µM)”.
With `CC(C)CN1CC2CC3C=NC2(C(=O)NCc2ccc4ccccc4c2)C1C3CCc1ccccc1` (stereo not drawn) [IIB-335], in test [1] (read-out: Anti-rabies activity), the IC50 is less than 5 µM. The Anti-cancer cell activity entry in test [3] (setting [4]) was “c (c if greater than 20 µM and less than or equal to 40 µM)”.
Consider `CC(C)CN1CC2CC3C=NC2(C(=O)NCc2ccccc2)C1C3CCCc1ccccc1` (stereo not drawn) [IIB-336], for which the IC50 in test [1] (read-out: Anti-rabies activity) was less than 5 µM. Also, the Anti-cancer cell activity entry in test [3] (setting [4]) was “c (c if greater than 20 µM and less than or equal to 40 µM)”.
With `CC(C)CN1CC2CC3C=NC2(C(=O)NCc2cccc(Cl)c2)C1C3CCCc1ccccc1` (stereo not drawn) [IIB-337], in test [1] (read-out: Anti-rabies activity), the IC50 was less than 5 µM. Besides, the Anti-cancer cell activity result in test [3] (setting [4]) is “c (c if greater than 20 µM and less than or equal to 40 µM)”.
Regarding `CC(C)CN1CC2CC3C=NC2(C(=O)NCc2cccc(F)c2)C1C3CCCc1ccccc1` (stereo not drawn) [IIB-338], the IC50 in test [1] (read-out: Anti-rabies activity) was less than 5 µM. The Anti-cancer cell activity result in test [3] (setting [4]) was “c (c if greater than 20 µM and less than or equal to 40 µM)”.
For the molecule `Cc1cccc(CNC(=O)C23N=CC4CC2CN(CC(C)C)C3C4CCCc2ccccc2)c1` (stereo not drawn) [IIB-340], in test [1] (read-out: Anti-rabies activity), the IC50 was less than 5 µM. Also, the Anti-cancer cell activity result in test [3] (setting [4]) was “c (c if greater than 20 µM and less than or equal to 40 µM)”.
On to `COc1cccc(CNC(=O)C23N=CC4CC2CN(CC(C)C)C3C4CCCc2ccccc2)c1` (stereo not drawn) [IIB-341], for which the IC50 in test [1] (read-out: Anti-rabies activity) is less than 5 µM. In test [3] (setting [4]), the Anti-cancer cell activity result is “c (c if greater than 20 µM and less than or equal to 40 µM)”.
Turning to `CC(C)CN1CC2CC3C=NC2(C(=O)NCc2cccc(Cl)c2)C1C3CCCCc1ccccc1` (stereo not drawn) [IIB-342], the IC50 in test [1] (read-out: Anti-rabies activity) is 5 to 10 µM. For the same molecule, in test [3] (setting [4]), the Anti-cancer cell activity entry is “b (b if greater than 10 µM and less than or equal to 20 µM)”.
As for `CC(C)CN1CC2CC3C=NC2(C(=O)NCc2cccc(F)c2)C1C3CCCCc1ccccc1` (stereo not drawn) [IIB-343], the IC50 in test [1] (read-out: Anti-rabies activity) was less than 5 µM. The Anti-cancer cell activity result in test [3] (setting [4]) is “c (c if greater than 20 µM and less than or equal to 40 µM)”.
With `Cc1cccc(CNC(=O)C23N=CC4CC2CN(CC(C)C)C3C4CCCCc2ccccc2)c1` (stereo not drawn) [IIB-344], the IC50 in test [1] (read-out: Anti-rabies activity) is less than 5 µM. In addition, the Anti-cancer cell activity result in test [3] (setting [4]) is “b (b if greater than 10 µM and less than or equal to 20 µM)”.
Regarding `COc1cccc(CNC(=O)C23N=CC4CC2CN(CC(C)C)C3C4CCCCc2ccccc2)c1` (stereo not drawn) [IIB-345], in test [1] (read-out: Anti-rabies activity), the IC50 is less than 5 µM. The Anti-cancer cell activity entry in test [3] (setting [4]) is “c (c if greater than 20 µM and less than or equal to 40 µM)”.
Regarding `CC(C)CN1CC2CC3C=NC2(C(=O)NCc2ccccc2)C1C3CCCCc1ccccc1` (stereo not drawn) [IIB-346], the IC50 in test [1] (read-out: Anti-rabies activity) is less than 5 µM. Also, the Anti-cancer cell activity entry in test [3] (setting [4]) is “b (b if greater than 10 µM and less than or equal to 20 µM)”.
For `CC(C)CCN1CC2CC3C=NC2(C(=O)NCc2cccc(F)c2)C1C3CCCc1ccccc1` (stereo not drawn) [IIB-347], the IC50 in test [1] (read-out: Anti-rabies activity) is less than 5 µM. The Anti-cancer cell activity result in test [3] (setting [4]) is “c (c if greater than 20 µM and less than or equal to 40 µM)”.
